In patent publication US6355799B1, “Substituted benzene compounds, process for their preparation, and herbicidal and defoliant compositions containing them” (ISK Americas Incorporated, priority 1997, dated 2002):

What was measured:
Assay type in all cases: in vivo
[1] = test system: upland rice (Oryza sp., var. Tebonnet, RICE); experiment: Post-emerge test, crop safety; conditions: rating scale 0-100 (0 no damage, 100 complete death), 14 days after application
In short: (§1)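 Herbicidal damage is scored 0 (none) to 100 (complete plant death) two weeks after a simulated field spray. Rates span 15–1000 g ai/ha, delivered in acetone at 187 l/ha. For post-emergence treatments, plants have 2–3 leaves and the spray carries 0.25% v/v non-ionic surfactant.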

[2] = test system: field corn (Zea mays L., var. Dekalb 535, CORN); experiment: Post-emerge test, crop safety; conditions: rating scale 0-100 (0 no damage, 100 complete death), 14 days after application
In short: as §1

[3] = test system: johnsongrass (Sorghum halepense, SORHA); experiment: Pre-emerge test, greenhouse herbicide activity screening; conditions: rating scale 0-100, 14 days after application
In short: as §1

[4] = test system: lambsquarters (Chenopodium album, CHEAL); experiment: as above; conditions: rating scale 0-100, 14 days after application
In short: as §1

[5] = test system: sicklepod (Cassia obtusifolia, CASOB); experiment: as above; conditions: rating scale 0-100, 14 days after application
In short: as §1

[6] = test system: ivyleaf morningglory (Ipomoea hederacea, IPOHE); experiment: as above; conditions: rating scale 0-100, 14 days after application
In short: as §1

[7] = test system: barnyardgrass (Echinochloa crus-galli, ECHCG); experiment: as above; conditions: rating scale 0-100, 14 days after application
In short: as §1

[8] = test system: green foxtail (Setaria viridis, SETVI); experiment: as above; conditions: rating scale 0-100, 14 days after application
In short: as §1

[9] = test system: velvetleaf (Abutilon theophrasti, ABUTH); experiment: as above; conditions: rating scale 0-100, 14 days after application
In short: as §1

[10] = test system: large crabgrass (Digitaria sanguinalis, DIGSA); experiment: as above; conditions: rating scale 0-100, 14 days after application
In short: as §1

[11] = test system: johnsongrass (Sorghum halepense, SORHA); experiment: Post-emerge test, greenhouse herbicide activity screening; conditions: rating scale 0-100 (0 no damage, 100 complete death), 14 days after application
In short: (§2)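 Compounds in acetone were track-sprayed at 187 l/ha, 15–1000 g ai/ha, onto sandy loam pots. Pre-emerge seeds were sown one day before spraying, with surface watering afterwards. Post-emerge plants were at the 2–3 leaf stage and sprayed with 0.25% v/v non-ionic surfactant. Injury was rated 0–100 at 14 days.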

[12] = test system: common ragweed (Ambrosia artemisizfolia L., AMBEL); experiment: as above; conditions: rating scale 0-100 (0 no damage, 100 complete death), 14 days after application
In short: as §2

[13] = test system: lambsquarters (Chenopodium album, CHEAL); experiment: as above; conditions: rating scale 0-100 (0 no damage, 100 complete death), 14 days after application
In short: as §2

[14] = test system: redroot pigweed (Amaranthus retroflexus, AMARE); experiment: as above; conditions: rating scale 0-100 (0 no damage, 100 complete death), 14 days after application
In short: as §2

[15] = test system: sicklepod (Cassia obtusifolia, CASOB); experiment: as above; conditions: rating scale 0-100 (0 no damage, 100 complete death), 14 days after application
In short: as §2

[16] = test system: ivyleaf morningglory (Ipomoea hederacea, IPOHE); experiment: as above; conditions: rating scale 0-100 (0 no damage, 100 complete death), 14 days after application
In short: as §2

[17] = test system: barnyardgrass (Echinochloa crus-galli, ECHCG); experiment: as above; conditions: rating scale 0-100 (0 no damage, 100 complete death), 14 days after application
In short: as §2

[18] = test system: green foxtail (Setaria viridis, SETVI); experiment: as above; conditions: rating scale 0-100 (0 no damage, 100 complete death), 14 days after application
In short: as §2

[19] = test system: velvetleaf (Abutilon theophrasti, ABUTH); experiment: as above; conditions: rating scale 0-100 (0 no damage, 100 complete death), 14 days after application
In short: as §2

[20] = test system: large crabgrass (Digitaria sanguinalis, DIGSA); experiment: as above; conditions: rating scale 0-100 (0 no damage, 100 complete death), 14 days after application
In short: as §2

[21] = test system: upland rice (Oryza sp., var. Tebonnet, RICE); experiment: Pre-emerge test, crop safety; conditions: rating scale 0-100, 14 days after application
In short: (§3)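 Fourteen days after spraying, crop and weed injury was graded visually from 0, no effect, to 100, every plant dead. Test substances were dissolved in acetone and applied at 15–1000 g ai/ha with a flat-fan nozzle. Application was either pre-emergence, one day after sowing, or post-emergence at the 2–3 leaf stage.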

[22] = test system: field corn (Zea mays L., var. Dekalb 535, CORN); experiment: Pre-emerge test, crop safety; conditions: rating scale 0-100, 14 days after application
In short: as §3

[23] = test system: redroot pigweed (Amaranthus retroflexus, AMARE); experiment: Pre-emerge test, greenhouse herbicide activity screening; conditions: rating scale 0-100, 14 days after application
In short: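 Visual ratings on a 0-100 scale (0 no damage, 100 all plants dead) were taken at 14 days after treatment. Rates of 15-1000 g ai/ha in acetone, 187 l/ha, were sprayed onto soil one day after planting (pre-emerge) or onto 2-3 leaf plants with 0.25% v/v surfactant (post-emerge).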

COc1c(Cl)cc(F)c(-n2c(=O)cc(C(F)(F)F)n(C)c2=O)c1CC(C)(Cl)C(=O)OCC(F)(F)C(F)F (centres unmarked) [14-45]
Post-emerge phytotoxicity rating RICE (crop damage) ([1]; Rate 63 g ai/ha): 70 | Post-emerge phytotoxicity rating RICE (crop damage) ([1]; Rate 250 g ai/ha): 100 | Post-emerge phytotoxicity rating CORN (crop damage) ([2]; Rate 63 g ai/ha): 70 | Post-emerge phytotoxicity rating CORN (crop damage) ([2]; Rate 250 g ai/ha): 100 | Pre-emerge herbicidal activity, phytotoxicity rating SORHA ([3]; 63 g ai/ha): 0 | Pre-emerge herbicidal activity, phytotoxicity rating SORHA ([3]; 250 g ai/ha): 50 | Pre-emerge herbicidal activity, phytotoxicity rating CHEAL ([4]; 63 g ai/ha): 95 | Pre-emerge herbicidal activity, phytotoxicity rating CHEAL ([4]; 250 g ai/ha): 100 | Pre-emerge herbicidal activity, phytotoxicity rating CASOB ([5]; 63 g ai/ha): 0 | Pre-emerge herbicidal activity, phytotoxicity rating CASOB ([5]; 250 g ai/ha): 0 | Pre-emerge herbicidal activity, phytotoxicity rating IPOHE ([6]; 63 g ai/ha): 0 | Pre-emerge herbicidal activity, phytotoxicity rating IPOHE ([6]; 250 g ai/ha): 0 | Pre-emerge herbicidal activity, phytotoxicity rating ECHCG ([7]; 63 g ai/ha): 0 | Pre-emerge herbicidal activity, phytotoxicity rating ECHCG ([7]; 250 g ai/ha): 80 | Pre-emerge herbicidal activity, phytotoxicity rating SETVI ([8]; 63 g ai/ha): 0 | Pre-emerge herbicidal activity, phytotoxicity rating SETVI ([8]; 250 g ai/ha): 95 | Pre-emerge herbicidal activity, phytotoxicity rating ABUTH ([9]; 63 g ai/ha): 100 | Pre-emerge herbicidal activity, phytotoxicity rating ABUTH ([9]; 250 g ai/ha): 100 | Pre-emerge herbicidal activity, phytotoxicity rating DIGSA ([10]; 63 g ai/ha): 30 | Pre-emerge herbicidal activity, phytotoxicity rating DIGSA ([10]; 250 g ai/ha): 99 | Post-emerge Herbicidal Activity, phytotoxicity rating SORHA ([11]; Rate 63 g ai/ha): 70 | Post-emerge Herbicidal Activity, phytotoxicity rating SORHA ([11]; Rate 250 g ai/ha): 90 | Post-emerge Herbicidal Activity, phytotoxicity rating AMBEL ([12]; Rate 63 g ai/ha): 100 | Post-emerge Herbicidal Activity, phytotoxicity rating AMBEL ([12]; Rate 250 g ai/ha): 100 | Post-emerge Herbicidal Activity, phytotoxicity rating CHEAL ([13]; Rate 63 g ai/ha): 100 | Post-emerge Herbicidal Activity, phytotoxicity rating CHEAL ([13]; Rate 250 g ai/ha): 100 | Post-emerge Herbicidal Activity, phytotoxicity rating AMARE ([14]; Rate 63 g ai/ha): 100 | Post-emerge Herbicidal Activity, phytotoxicity rating AMARE ([14]; Rate 250 g ai/ha): 100 | Post-emerge Herbicidal Activity, phytotoxicity rating CASOB ([15]; Rate 63 g ai/ha): 30 | Post-emerge Herbicidal Activity, phytotoxicity rating CASOB ([15]; Rate 250 g ai/ha): 30 | Post-emerge Herbicidal Activity, phytotoxicity rating IPOHE ([16]; Rate 63 g ai/ha): 100 | Post-emerge Herbicidal Activity, phytotoxicity rating IPOHE ([16]; Rate 250 g ai/ha): 100 | Post-emerge Herbicidal Activity, phytotoxicity rating ECHCG ([17]; Rate 63 g ai/ha): 100 | Post-emerge Herbicidal Activity, phytotoxicity rating ECHCG ([17]; Rate 250 g ai/ha): 100 | Post-emerge Herbicidal Activity, phytotoxicity rating SETVI ([18]; Rate 63 g ai/ha): 70 | Post-emerge Herbicidal Activity, phytotoxicity rating SETVI ([18]; Rate 250 g ai/ha): 95 | Post-emerge Herbicidal Activity, phytotoxicity rating ABUTH ([19]; Rate 63 g ai/ha): 100 | Post-emerge Herbicidal Activity, phytotoxicity rating ABUTH ([19]; Rate 250 g ai/ha): 100 | Post-emerge Herbicidal Activity, phytotoxicity rating DIGSA ([20]; Rate 63 g ai/ha): 90 | Post-emerge Herbicidal Activity, phytotoxicity rating DIGSA ([20]; Rate 250 g ai/ha): 100 | Pre-emerge phytotoxicity rating, crop damage RICE ([21]; 63 g ai/ha): 10 | Pre-emerge phytotoxicity rating, crop damage RICE ([21]; 250 g ai/ha): 80 | Pre-emerge phytotoxicity rating, crop damage CORN ([22]; 63 g ai/ha): 0 | Pre-emerge phytotoxicity rating, crop damage CORN ([22]; 250 g ai/ha): 10 | Pre-emerge herbicidal activity, phytotoxicity rating AMARE ([23]; 63 g ai/ha): 100 | Pre-emerge herbicidal activity, phytotoxicity rating AMARE ([23]; 250 g ai/ha): 100

COCCOC(=O)C(C)(Cl)Cc1c(OC)c(Cl)cc(F)c1-n1c(=O)cc(C(F)(F)F)n(C)c1=O (centres unmarked) [14-47]
Post-emerge phytotoxicity rating RICE (crop damage) ([1]; Rate 63 g ai/ha): 100 | Post-emerge phytotoxicity rating RICE (crop damage) ([1]; Rate 250 g ai/ha): 100 | Post-emerge phytotoxicity rating CORN (crop damage) ([2]; Rate 63 g ai/ha): 40 | Post-emerge phytotoxicity rating CORN (crop damage) ([2]; Rate 250 g ai/ha): 100 | Pre-emerge herbicidal activity, phytotoxicity rating SORHA ([3]; 63 g ai/ha): 0 | Pre-emerge herbicidal activity, phytotoxicity rating SORHA ([3]; 250 g ai/ha): 20 | Pre-emerge herbicidal activity, phytotoxicity rating CHEAL ([4]; 63 g ai/ha): 100 | Pre-emerge herbicidal activity, phytotoxicity rating CHEAL ([4]; 250 g ai/ha): 100 | Pre-emerge herbicidal activity, phytotoxicity rating CASOB ([5]; 63 g ai/ha): 0 | Pre-emerge herbicidal activity, phytotoxicity rating CASOB ([5]; 250 g ai/ha): 0 | Pre-emerge herbicidal activity, phytotoxicity rating IPOHE ([6]; 63 g ai/ha): 0 | Pre-emerge herbicidal activity, phytotoxicity rating IPOHE ([6]; 250 g ai/ha): 0 | Pre-emerge herbicidal activity, phytotoxicity rating ECHCG ([7]; 63 g ai/ha): 0 | Pre-emerge herbicidal activity, phytotoxicity rating ECHCG ([7]; 250 g ai/ha): 95 | Pre-emerge herbicidal activity, phytotoxicity rating SETVI ([8]; 63 g ai/ha): 0 | Pre-emerge herbicidal activity, phytotoxicity rating SETVI ([8]; 250 g ai/ha): 99 | Pre-emerge herbicidal activity, phytotoxicity rating ABUTH ([9]; 63 g ai/ha): 100 | Pre-emerge herbicidal activity, phytotoxicity rating ABUTH ([9]; 250 g ai/ha): 100 | Pre-emerge herbicidal activity, phytotoxicity rating DIGSA ([10]; 63 g ai/ha): 30 | Pre-emerge herbicidal activity, phytotoxicity rating DIGSA ([10]; 250 g ai/ha): 100 | Post-emerge Herbicidal Activity, phytotoxicity rating SORHA ([11]; Rate 63 g ai/ha): 70 | Post-emerge Herbicidal Activity, phytotoxicity rating SORHA ([11]; Rate 250 g ai/ha): 80 | Post-emerge Herbicidal Activity, phytotoxicity rating AMBEL ([12]; Rate 63 g ai/ha): 100 | Post-emerge Herbicidal Activity, phytotoxicity rating AMBEL ([12]; Rate 250 g ai/ha): 100 | Post-emerge Herbicidal Activity, phytotoxicity rating CHEAL ([13]; Rate 63 g ai/ha): 100 | Post-emerge Herbicidal Activity, phytotoxicity rating CHEAL ([13]; Rate 250 g ai/ha): 100 | Post-emerge Herbicidal Activity, phytotoxicity rating AMARE ([14]; Rate 63 g ai/ha): 100 | Post-emerge Herbicidal Activity, phytotoxicity rating AMARE ([14]; Rate 250 g ai/ha): 100 | Post-emerge Herbicidal Activity, phytotoxicity rating CASOB ([15]; Rate 63 g ai/ha): 0 | Post-emerge Herbicidal Activity, phytotoxicity rating CASOB ([15]; Rate 250 g ai/ha): 70 | Post-emerge Herbicidal Activity, phytotoxicity rating IPOHE ([16]; Rate 63 g ai/ha): 80 | Post-emerge Herbicidal Activity, phytotoxicity rating IPOHE ([16]; Rate 250 g ai/ha): 100 | Post-emerge Herbicidal Activity, phytotoxicity rating ECHCG ([17]; Rate 63 g ai/ha): 100 | Post-emerge Herbicidal Activity, phytotoxicity rating ECHCG ([17]; Rate 250 g ai/ha): 100 | Post-emerge Herbicidal Activity, phytotoxicity rating SETVI ([18]; Rate 63 g ai/ha): 90 | Post-emerge Herbicidal Activity, phytotoxicity rating SETVI ([18]; Rate 250 g ai/ha): 100 | Post-emerge Herbicidal Activity, phytotoxicity rating ABUTH ([19]; Rate 63 g ai/ha): 100 | Post-emerge Herbicidal Activity, phytotoxicity rating ABUTH ([19]; Rate 250 g ai/ha): 100 | Post-emerge Herbicidal Activity, phytotoxicity rating DIGSA ([20]; Rate 63 g ai/ha): 95 | Post-emerge Herbicidal Activity, phytotoxicity rating DIGSA ([20]; Rate 250 g ai/ha): 100 | Pre-emerge phytotoxicity rating, crop damage RICE ([21]; 63 g ai/ha): 0 | Pre-emerge phytotoxicity rating, crop damage RICE ([21]; 250 g ai/ha): 70 | Pre-emerge phytotoxicity rating, crop damage CORN ([22]; 63 g ai/ha): 0 | Pre-emerge phytotoxicity rating, crop damage CORN ([22]; 250 g ai/ha): 0 | Pre-emerge herbicidal activity, phytotoxicity rating AMARE ([23]; 63 g ai/ha): 100 | Pre-emerge herbicidal activity, phytotoxicity rating AMARE ([23]; 250 g ai/ha): 100
